In brackets after ≈: the same amount, converted by molar mass. Where two headings read alike, the source gives them in different places.
Assays:
[1] = test system: rRVFVΔNSs::Katushka; experiment: microbe, parasite or virus in culture; type: cell-based, Rift Valley fever virus; settings: for EC50: read-out: EC50, inhibition of fluorescent cell foci
[2] = physchem; settings: 37 °C, pH 7.4, aqueous buffer, thermodynamic from solid
[3] = human
[4] = physchem; settings: pH 7.4
[5] = in vitro; settings: human, Caco-2, pH 7.4
[6] = in vitro; settings: both, human, plasma, pH 7.4
[7] = in vitro; settings: human, microsomes, pH 7.4
[8] = in vitro; settings: human, hepatocytes
[9] = human, microsomes, pH 7.4
[10] = test system: A549 cells; settings: cited from earlier work
[11] = in vitro; settings: mouse, plasma, pH 7.4
[12] = test system: rRVFVΔNSs::Katushka; experiment: microbe, parasite or virus in culture; type: cell-based, Rift Valley fever virus
[13] = mouse, microsomes, pH 7.4
[14] = in vitro; settings: mouse, microsomes, pH 7.4
[15] = test system: rRVFVΔNSs::Katushka; experiment: microbe, parasite or virus in culture; type: cell-based; settings: Rift Valley fever virus, A549, 16 h, read-out: EC50, inhibition of RVFV RNA expression (qPCR)
[16] = female, BALB/C, mouse, in vivo
[17] = physchem; settings: plasma or biological fluid
[18] = in vivo; settings: female, BALB/C, mouse
[19] = test system: rRVFVΔNSs::Katushka; type: cell-based, Rift Valley fever virus
[20] = mouse, in vivo
[21] = test system: RVFV virions; type: cell-based, Rift Valley fever virus
[22] = Rift Valley fever virus, A549, 16 h

With `CC(C)(C)C(=O)Nc1ccccc1C(=O)Nc1ccccc1C(=O)O` [17d] the “EC50, inhibition of fluorescent cell foci” value [1] was “out of range”.

With `O=C(O)c1ccccc1NC(=O)c1ccccc1NC(=O)C1CCCCC1` [17e] the “EC50, inhibition of fluorescent cell foci” value [1] was “out of range”.

In the case of `O=C(Nc1cc(Cl)ccc1C(=O)Nc1ccccc1C(=O)O)c1ccccc1F` [35f], the EC50 [1, 22] is reported as 4.5 µM and the EC50 [1] is reported as 4.6 µM.

For `O=C(Nc1ccccc1C(=O)Nc1ccccc1C(=O)O)c1ccccc1` [Benzavir-1, 2-{[2-(benzoylamino)benzoyl]amino}-benzoic acid], the EC50 [1, 22] was 10.1 µM, the solubility [2] was 930 ± 110 µM (≈ 335 µg/mL) and the “CLH, u (HHep)” value [3] was 2.3 L/h. It also gave a logD [4] of 1.52 ± 0.02, a Papp A→B [5] of 32 ± 3 ×10⁻⁶ cm/s and a Papp B→A [5] of 31 ± 2 ×10⁻⁶ cm/s. The efflux ratio [5] was 1, the fraction unbound [6] was 0.0003 and the microsomal CLint [7] was 3.9 ± 0.8 µL/min/mg. For the same molecule, the hepatocyte CLint [8] was 3.1 ± 0.1 µL/min/1e6 cells and the “CLH, u (HLM)” value [9] was 1.0 L/h.

In the case of `O=C(Nc1cc(F)c(F)cc1C(=O)Nc1ccccc1C(=O)O)c1ccccc1F` [Benzavir-2, 2-(4,5-difluoro-2-(2-fluorobenzamido)benzamido)benzoic acid], the CC50 [10] is listed as “not achieved within these concentrations”, the fraction unbound [11] is listed as 0.0076 ± 0.0002 and the EC50 [1, 22] is listed as 0.6 µM. For the same molecule, the “inhibition of release of viable progeny particles to the supernatant” value ([12]; 1.25 μM) was greater than 95%, the EC50 ([12]; Rift Valley fever virus, A549, 16 h, read-out: EC50, inhibition of production of progeny infectious virus) was 0.6 µM and the solubility [2] was 130 ± 10 µM (≈ 53.9 µg/mL). The “CLH, u (HHep)” value [3] was 4.0 L/h, the “CLH, u (MLM)” value [13] was 0.15 L/h and the logD [4] was 1.56 ± 0.01. The Papp A→B [5] was 55 ± 4 ×10⁻⁶ cm/s, the Papp B→A [5] was 45 ± 3 ×10⁻⁶ cm/s and the efflux ratio [5] was 0.8. It also gave a fraction unbound [6] of 0.0004 ± 0.0002, a microsomal CLint [14] of 3.8 ± 0.9 µL/min/mg and an EC50 [15] of 1.7 µM. It also gave a microsomal CLint [7] of 3.8 ± 0.4 µL/min/mg, a hepatocyte CLint [8] of 4.1 ± 0.4 µL/min/1e6 cells and a Fapp ([16]; ip, 2 mg/kg) of 43 ± 15%. The Fapp ([16]; ip, 10 mg/kg) was 120 ± 40%, the “iv CL relative to unbound in vitro metabolic CL” value ([16]; iv) was 2–4 times higher and the Fapp ([16]; po, 2 mg/kg) was 14 ± 5%. The Fapp ([16]; po, 10 mg/kg) was 54 ± 18%, the “CLH, u (HLM)” value [9] was 1.4 L/h and the solubility [17] was greater than 150 µM. For the same molecule, the Cmax ([18]; ip, 2 mg/kg) was 2.3 µM, the Tmax ([18]; ip, 2 mg/kg) was 15 min and the half-life ([18]; ip, 2 mg/kg) was 84 ± 12 min. For the same molecule, the Cmax ([18]; ip, 10 mg/kg) was 28 µM, the Tmax ([18]; ip, 10 mg/kg) was 15 min and the half-life ([18]; ip, 10 mg/kg) was 96 ± 12 min. The Cmax ([18]; iv, 1 mg/kg) was 7.8 µM, the Vd ([18]; iv, 1 mg/kg) was 29 ± 7 L/kg and the clearance ([18]; iv, 1 mg/kg) was 9.33 mL/min. For the same molecule, the half-life ([18]; iv, 1 mg/kg) was 42 ± 12 min, the Cmax ([18]; iv, 2 mg/kg) was 7.8 µM and the Vd ([18]; iv, 2 mg/kg) was 20 ± 2 L/kg. The clearance ([18]; iv, 2 mg/kg) was 6.17 mL/min, the half-life ([18]; iv, 2 mg/kg) was 42 ± 6 min and the Cmax ([18]; iv, 4 mg/kg) was 20 µM. It also gave a Vd ([18]; iv, 4 mg/kg) of 35 ± 7 L/kg, a clearance ([18]; iv, 4 mg/kg) of 11.3 mL/min and a half-life ([18]; iv, 4 mg/kg) of 42 ± 6 min. For the same molecule, the Cmax ([18]; po, 2 mg/kg) was 0.4 µM, the Tmax ([18]; po, 2 mg/kg) was 30 min and the half-life ([18]; po, 2 mg/kg) was 180 ± 36 min. It also gave a Cmax ([18]; po, 10 mg/kg) of 13 µM, a Tmax ([18]; po, 10 mg/kg) of 30 min and a half-life ([18]; po, 10 mg/kg) of 180 ± 60 min. For the same molecule, the “inhibitory effect by time of addition” value [19] was “the inhibitory effect on the formation of the fluorescent cell foci was the greatest”, the “weight loss or negative behavioural signs” value [20] was “No weight loss or negative behavioural signs were observed” and the “inhibition of binding or uptake of RVFV virions” value [21] was “No inhibition of binding or uptake of RVFV virions”.
